Results published in patent publication US12427183B2, “Methods of treating cancer, infectious disease, and autoimmune disease using chemokines” (New York Society for the Relief of the Ruptured and …, priority 2016, dated 2025).

Experiments:
[1] = tested on: CXCR3; experiment: CXCR3 inhibition during chemokine-potentiated TLR9 activation of pDCs, IFN-α ELISA; type: cell-based, human; details: AMG487 0.1, 1 or 10 μM, CpG 0.25 μM, 24 hours
Procedure: Purified pDCs from HDs were cultured in media alone (control), with either a CpG TLR9 agonist (0.25 μM) or with CpG and either CXCL4 or CXCL10 (both at 10 μg/ml) alone or in the presence of the CXCR3 inhibitor AMG487 at 0, 0.1, 1 or 10 μM for 24 hours. IFN-α was quantified in the supernatants by ELISA.

[2] = target: PI3Kδ (Homo sapiens, UniProt O00329); details: at the concentration used (10 μM)
Sequence of PI3Kδ (O00329 whole entry): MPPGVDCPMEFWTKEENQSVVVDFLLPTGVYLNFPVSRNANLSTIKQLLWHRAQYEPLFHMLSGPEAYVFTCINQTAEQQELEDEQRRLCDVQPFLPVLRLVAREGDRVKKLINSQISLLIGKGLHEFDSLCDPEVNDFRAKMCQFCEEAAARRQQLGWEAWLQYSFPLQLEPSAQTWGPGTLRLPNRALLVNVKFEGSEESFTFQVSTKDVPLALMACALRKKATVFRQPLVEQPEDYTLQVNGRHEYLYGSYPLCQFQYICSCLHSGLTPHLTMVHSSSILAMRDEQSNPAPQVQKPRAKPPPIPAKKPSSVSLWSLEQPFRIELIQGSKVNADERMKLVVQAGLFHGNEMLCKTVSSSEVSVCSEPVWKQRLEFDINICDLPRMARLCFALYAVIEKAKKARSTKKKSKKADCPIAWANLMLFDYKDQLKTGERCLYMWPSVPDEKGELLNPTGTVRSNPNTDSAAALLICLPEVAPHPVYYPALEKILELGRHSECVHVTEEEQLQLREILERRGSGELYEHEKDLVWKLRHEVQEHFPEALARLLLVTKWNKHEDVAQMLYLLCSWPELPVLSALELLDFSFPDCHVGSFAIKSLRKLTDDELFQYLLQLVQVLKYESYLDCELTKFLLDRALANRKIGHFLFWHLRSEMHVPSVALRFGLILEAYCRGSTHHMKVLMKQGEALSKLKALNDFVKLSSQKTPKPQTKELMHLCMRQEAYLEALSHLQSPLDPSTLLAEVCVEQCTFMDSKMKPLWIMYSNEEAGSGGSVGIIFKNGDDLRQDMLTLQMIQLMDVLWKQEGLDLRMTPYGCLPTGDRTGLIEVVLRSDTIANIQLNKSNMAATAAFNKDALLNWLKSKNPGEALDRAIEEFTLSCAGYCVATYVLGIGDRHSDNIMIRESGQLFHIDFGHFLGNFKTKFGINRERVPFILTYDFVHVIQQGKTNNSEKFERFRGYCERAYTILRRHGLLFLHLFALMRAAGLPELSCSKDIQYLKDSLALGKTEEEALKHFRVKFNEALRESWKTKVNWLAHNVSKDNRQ
Sequence of PI3Kδ (P27986 whole entry partner): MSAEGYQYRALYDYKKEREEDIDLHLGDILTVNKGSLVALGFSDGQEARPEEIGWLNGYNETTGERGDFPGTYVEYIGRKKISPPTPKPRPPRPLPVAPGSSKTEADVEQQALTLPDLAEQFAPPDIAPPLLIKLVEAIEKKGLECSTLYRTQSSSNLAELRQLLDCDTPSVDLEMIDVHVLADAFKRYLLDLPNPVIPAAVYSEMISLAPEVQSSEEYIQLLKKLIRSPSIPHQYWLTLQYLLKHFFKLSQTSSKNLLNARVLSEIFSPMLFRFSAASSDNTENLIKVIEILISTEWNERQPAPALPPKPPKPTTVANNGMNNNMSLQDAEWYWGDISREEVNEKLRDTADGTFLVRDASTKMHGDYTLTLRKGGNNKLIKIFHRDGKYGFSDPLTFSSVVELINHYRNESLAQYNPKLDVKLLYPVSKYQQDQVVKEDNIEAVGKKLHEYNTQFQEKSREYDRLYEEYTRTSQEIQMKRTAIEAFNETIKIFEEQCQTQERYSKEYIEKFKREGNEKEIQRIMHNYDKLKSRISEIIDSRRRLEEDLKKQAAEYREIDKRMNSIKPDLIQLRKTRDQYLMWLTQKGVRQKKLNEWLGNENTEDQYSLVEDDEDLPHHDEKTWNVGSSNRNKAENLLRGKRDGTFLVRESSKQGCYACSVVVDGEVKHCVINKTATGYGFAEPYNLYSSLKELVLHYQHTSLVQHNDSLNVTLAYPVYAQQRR

SMILES	effect of CXCR3 inhibition on the activation of TLR9 by CXCL4 in pDCs ([1]; CXCL4 10 μg/ml)	effect of CXCR3 inhibition on the activation of TLR9 by CXCL10 in pDCs ([1]; CXCL10 10 μg/ml)	cell viability of pDCs from HDs [2]
CCOc1ccc(-n2c([C@@H](C)N(Cc3cccnc3)C(=O)Cc3ccc(OC(F)(F)F)cc3)nc3ncccc3c2=O)cc1 [AMG487]	no effect	no effect	–
CC[C@H](Nc1ncnc2[nH]cnc12)c1nc2cccc(F)c2c(=O)n1-c1ccccc1 [CAL-101]	–	–	without impacting
